In brackets after ≈: the same amount, converted by molar mass.
Columns and labels:
[1] = Partition coefficient, phosphate buffer/n-octanol; type: physicochemical; details: n-octanol/50 mm phosphate buffer; 50 mM phosphate buffer (pH 7.4, μ=0.15)/n-octanol
Experimental: Following the method proposed by Akira Tsuji et al. in Antimicrob. Agents Chemother., 32, 190-194 (1988), 50 mM phosphate buffer (pH 7.4, μ=0.15)/n-octanol partition coefficients were measured.

mice = experiment: Interaction with fenbufen and toxicological study (coadministration test with fenbufen); type: in vivo
Experimental: Fenbufen and the quinolone compounds were each diluted with a solution of 0.5% methylcellulose.
A dose of 200 mg/kg of fenbufen was administered by oral route to groups of 10 mice (female, ICR, 18-23 g) 90 minutes before administration of the quinolone compounds by oral route, at a dose of 500 mg/kg. […] Following the 24 hours number of survival animals was noted.

[2] = test system: E. coli NIH JC-2 (IFO 12734); experiment: Minimum inhibitory concentration, standard method of the Japan Society of Chemotherapy; type: cell-based; details: Escherichia coli, IFO12734
Experimental: (§1) With respect to certain representative compounds among the compounds [I] of the present invention, their minimum inhibitory concentrations (MIC; μg/ml) were measured in accordance with the standard method established by the Japan Society of Chemotherapy [CHEMOTHERAPY, 29(1), 76-79 (1981)]. The results are summarized in Table 1, in which the compound numbers are as shown in examples.

P. aeruginosa (IFO 3445) = experiment: as above; type: cell-based; details: Pseudomonas aeruginosa, IFO3445
Experimental: as §1

[3] = test system: S. aureus 209 P (IFO 12732); experiment: as above; type: cell-based; details: Staphylococcus aureus, IFO12732
Experimental: as §1

## C[C@H]1CN(c2c(F)c(N)c3c(=O)c(C(=O)O)cn(C4COC4)c3c2F)C[C@H]1N (single isomer, unassigned) [Compound 113, 5-Amino-7-{(-)-cis-3-amino-4-methylpyrrolidin-1-yl}-6,8-difluoro-1-(oxetan-3-yl)-1,4-dihydro-4-oxoquinoline-3-carboxylic acid]
[1]
  logD: -0.529

## C[C@H]1CN(c2c(F)c(N)c3c(=O)c(C(=O)O)cn(C4COC4)c3c2F)C[C@H]1N.O=S(=O)(O)O (single isomer, unassigned) [Compound 117, 5-Amino-7-{(-)-cis-3-amino-4-methylpyrrolidin-1-yl}-6,8-difluoro-1-(oxetan-3-yl) -1,4-dihydro-4-oxoquinoline-3-carboxylic acid sulfuric acid salt]
mice; quinolone 500 mg/kg oral, 90 min after fenbufen 200 mg/kg oral, 24 hours
  Mortality, number of dead mice: 0/10
mice; quinolone 500 mg/kg oral, 90 min after fenbufen 200 mg/kg oral, during two hours
  Induction of convulsion, number of positive mice: 0/10

## CN1CCN(c2c(F)c(N)c3c(=O)c(C(=O)O)cn(C4COC4)c3c2F)CC1 [Compound 29]
[2]
  MIC: 0.1 µg/mL (≈ 0.254 µM)
P. aeruginosa (IFO 3445)
  MIC: 0.78 µg/mL (≈ 1.98 µM)
[3]
  MIC: 0.78 µg/mL (≈ 1.98 µM)
[1]
  logD: -0.333
mice; mouse, in vivo
  Induction of convulsion, number of positive mice: 0/10
  Mortality, number of dead mice: 0/10

## CCNCC1CCN(c2c(F)c(N)c3c(=O)c(C(=O)O)cn(C4COC4)c3c2F)C1 (centres unmarked) [Compound 53]
[2]
  MIC: 0.2 µg/mL (≈ 0.473 µM)
P. aeruginosa (IFO 3445)
  MIC: 3.13 µg/mL (≈ 7.41 µM)
[3]
  MIC: 0.1 µg/mL (≈ 0.237 µM)

## Nc1c(F)c(N2CCNCC2)c(F)c2c1c(=O)c(C(=O)O)cn2C1COC1 [Compound 55]
[2]
  MIC: 0.39 µg/mL (≈ 1.03 µM)
P. aeruginosa (IFO 3445)
  MIC: 0.78 µg/mL (≈ 2.05 µM)
[3]
  MIC: 0.78 µg/mL (≈ 2.05 µM)

## Nc1c(F)c(N2CCOCC2)c(F)c2c1c(=O)c(C(=O)O)cn2C1COC1 [Compound 58]
[2]
  MIC: 0.78 µg/mL (≈ 2.05 µM)
P. aeruginosa (IFO 3445)
  MIC: 6.25 µg/mL (≈ 16.4 µM)
[3]
  MIC: 0.39 µg/mL (≈ 1.02 µM)

## Nc1c(F)c(N2CCC(O)C2)c(F)c2c1c(=O)c(C(=O)O)cn2C1COC1 (centres unmarked) [Compound 59]
[2]
  MIC: 0.39 µg/mL (≈ 1.02 µM)
P. aeruginosa (IFO 3445)
  MIC: 3.13 µg/mL (≈ 8.21 µM)
[3]
  MIC: 0.39 µg/mL (≈ 1.02 µM)

## CN1CCN(c2nc3c(cc2F)c(=O)c(C(=O)O)cn3C2COC2)CC1 [Compound 61, 6-Fluoro-7-(4-methylpiperazin-1-yl)-1-(oxetan-3-yl)-1,4-dihydro-4-oxo-1,8-naphthylidine-3-carboxylic acid]
[2]
  MIC: 0.39 µg/mL (≈ 1.08 µM)
P. aeruginosa (IFO 3445)
  MIC: 1.56 µg/mL (≈ 4.31 µM)
[3]
  MIC: 3.13 µg/mL (≈ 8.64 µM)

## NC1CCN(c2nc3c(cc2F)c(=O)c(C(=O)O)cn3C2COC2)C1 (centres unmarked) [Compound 65]
[2]
  MIC: 0.2 µg/mL (≈ 0.574 µM)
P. aeruginosa (IFO 3445)
  MIC: 0.39 µg/mL (≈ 1.12 µM)
[3]
  MIC: 1.56 µg/mL (≈ 4.48 µM)

## CN(C)C1CCN(c2nc3c(cc2F)c(=O)c(C(=O)O)cn3C2COC2)C1 (centres unmarked) [Compound 66]
[2]
  MIC: 0.39 µg/mL (≈ 1.04 µM)
P. aeruginosa (IFO 3445)
  MIC: 3.13 µg/mL (≈ 8.32 µM)
[3]
  MIC: 3.13 µg/mL (≈ 8.32 µM)

## CCNC1CCN(c2nc3c(cc2F)c(=O)c(C(=O)O)cn3C2COC2)C1 (centres unmarked) [Compound 69]
[2]
  MIC: 0.39 µg/mL (≈ 1.04 µM)
P. aeruginosa (IFO 3445)
  MIC: 1.56 µg/mL (≈ 4.14 µM)
[3]
  MIC: 3.13 µg/mL (≈ 8.32 µM)

## CNCC1CCN(c2nc3c(cc2F)c(=O)c(C(=O)O)cn3C2COC2)C1 (centres unmarked) [Compound 70]
[2]
  MIC: 1.56 µg/mL (≈ 4.14 µM)
P. aeruginosa (IFO 3445)
  MIC: 6.25 µg/mL (≈ 16.6 µM)
[3]
  MIC: 0.39 µg/mL (≈ 1.04 µM)

## O=C(O)c1cn(C2COC2)c2nc(N3CCCC3)c(F)cc2c1=O [Compound 72]
[2]
  MIC: 0.39 µg/mL (≈ 1.17 µM)
P. aeruginosa (IFO 3445)
  MIC: 3.13 µg/mL (≈ 9.39 µM)
[3]
  MIC: 0.2 µg/mL (≈ 0.6 µM)

## O=C(O)c1cn(C2COC2)c2nc(N3CCSC3)c(F)cc2c1=O [Compound 73]
[2]
  MIC: 0.78 µg/mL (≈ 2.22 µM)
P. aeruginosa (IFO 3445)
  MIC: 6.25 µg/mL (≈ 17.8 µM)
[3]
  MIC: 0.78 µg/mL (≈ 2.22 µM)

## COc1c(N2CCC(N)C2)c(F)cc2c(=O)c(C(=O)O)cn(C3COC3)c12 (centres unmarked) [Compound 76, 7-(3-Aminopyrrolidin-1-yl)-6-fluoro-8-methoxy-1-(oxetan-3-yl)-1,4-dihydro-4-oxoquinoline-3-carboxylic acid]
[2]
  MIC: 0.39 µg/mL (≈ 1.03 µM)
P. aeruginosa (IFO 3445)
  MIC: 1.56 µg/mL (≈ 4.13 µM)
[3]
  MIC: 0.2 µg/mL (≈ 0.53 µM)

## COc1c(N2CCC(N(C)C)C2)c(F)cc2c(=O)c(C(=O)O)cn(C3COC3)c12 (centres unmarked) [Compound 77]
[2]
  MIC: 1.56 µg/mL (≈ 3.85 µM)
P. aeruginosa (IFO 3445)
  MIC: 12.5 µg/mL (≈ 30.8 µM)
[3]
  MIC: 1.56 µg/mL (≈ 3.85 µM)

## CCNCC1CCN(c2c(F)cc3c(=O)c(C(=O)O)cn(C4COC4)c3c2OC)C1 (centres unmarked) [Compound 79]
[2]
  MIC: 1.56 µg/mL (≈ 3.72 µM)
P. aeruginosa (IFO 3445)
  MIC: 25 µg/mL (≈ 59.6 µM)
[3]
  MIC: 0.1 µg/mL (≈ 0.238 µM)

## COc1c(N2CCNCC2)c(F)cc2c(=O)c(C(=O)O)cn(C3COC3)c12 [Compound 81]
[2]
  MIC: 0.78 µg/mL (≈ 2.07 µM)
P. aeruginosa (IFO 3445)
  MIC: 3.13 µg/mL (≈ 8.29 µM)
[3]
  MIC: 0.78 µg/mL (≈ 2.07 µM)

## CCNC1CCN(c2c(F)cc3c(=O)c(C(=O)O)cn(C4COC4)c3c2OC)C1 (centres unmarked) [Compound 82]
[2]
  MIC: 1.56 µg/mL (≈ 3.85 µM)
P. aeruginosa (IFO 3445)
  MIC: 12.5 µg/mL (≈ 30.8 µM)
[3]
  MIC: 0.78 µg/mL (≈ 1.92 µM)

## CN(C)NC1CCN(c2c(F)c(N)c3c(=O)c(C(=O)O)cn(C4COC4)c3c2F)C1 (centres unmarked) [Compound 96]
[2]
  MIC: 0.1 µg/mL (≈ 0.236 µM)
P. aeruginosa (IFO 3445)
  MIC: 0.78 µg/mL (≈ 1.84 µM)
[3]
  MIC: 0.39 µg/mL (≈ 0.921 µM)

## Nc1c(F)c(N2CCN(O)CC2)c(F)c2c1c(=O)c(C(=O)O)cn2C1COC1 [Compound 107]
[2]
  MIC: 0.78 µg/mL (≈ 1.97 µM)
P. aeruginosa (IFO 3445)
  MIC: 6.25 µg/mL (≈ 15.8 µM)
[3]
  MIC: 3.13 µg/mL (≈ 7.9 µM)

## Cl.N=CN1CCN(c2c(F)c(N)c3c(=O)c(C(=O)O)cn(C4COC4)c3c2F)CC1 [Compound 108, 5-Amino-6,8-difluoro-7-(4-formimidoylpiperazin-1-yl)-1-(oxetan-3-yl)-1,4-dihydro-4-oxoquinoline-3-carboxylic acid hydrochloride]
[2]
  MIC: 0.78 µg/mL
P. aeruginosa (IFO 3445)
  MIC: 3.13 µg/mL
[3]
  MIC: 0.78 µg/mL

## CC(=N)N1CCN(c2c(F)c(N)c3c(=O)c(C(=O)O)cn(C4COC4)c3c2F)CC1 [Compound 109]
[2]
  MIC: 0.39 µg/mL (≈ 0.925 µM)
P. aeruginosa (IFO 3445)
  MIC: 3.13 µg/mL (≈ 7.43 µM)
[3]
  MIC: 0.78 µg/mL (≈ 1.85 µM)

## N=CNC1CCN(c2c(F)c(N)c3c(=O)c(C(=O)O)cn(C4COC4)c3c2F)C1 (centres unmarked) [Compound 110]
[2]
  MIC: 0.78 µg/mL (≈ 1.91 µM)
P. aeruginosa (IFO 3445)
  MIC: 6.25 µg/mL (≈ 15.3 µM)
[3]
  MIC: 1.56 µg/mL (≈ 3.83 µM)

## CCn1cc(C(=O)O)c(=O)c2cc(F)c(N3CCNCC3)nc21 [Enoxacin, enoxacin, reference compound]
mice; mouse, in vivo
  Induction of convulsion, number of positive mice: 10/10
  Mortality, number of dead mice: 10/10
